Laboratory results published in PMC12136037, “Type II kinase inhibitors that target Parkinson’s disease–associated LRRK2” (Science Advances, 2025).

Legend:
Test in all cases: 33PanQinase kinome-wide selectivity profile (Reaction Biology)
Type in all cases: biochemical
350 wild-type kinases [1] = biological target: T1, 350 wild-type kinases (Homo sapiens, UniProt O00238); conditions: kinase BMPR1B, ATP 3 µM, singlicate
T1 construct: purchased Reaction Biology (assay service)
Protocol: (§1) Compound RN341 was tested at two concentrations of 1 and 10 μM against a panel of 350 wild-type kinases in the ^33PanQinase assay. The assay was performed by Reaction Biology (www.reactionbiology.com/services/kinase-assays/kinase-panel-screening/).

350 wild-type kinases [2] = biological target: T2, 350 wild-type kinases (Homo sapiens, UniProt P00519); conditions: kinase ABL1, ATP 0,3 µM, singlicate
T2 construct: purchased Reaction Biology (assay service)
Protocol: as §1

350 wild-type kinases [3] = biological target: T3, 350 wild-type kinases (Homo sapiens, UniProt P06493); conditions: singlicate; for Residual activity (% of control), CDK1/CycA2: kinase CDK1/CycA2, ATP 0,3 µM; for Residual activity (% of control), CDK1/CycB1: kinase CDK1/CycB1; for Residual activity (% of control), CDK1/CycB1 / Residual activity (% of control), CDK1/CycE1: ATP 1 µM; for Residual activity (% of control), CDK1/CycE1: kinase CDK1/CycE1
T3 construct: purchased Reaction Biology (assay service)
Protocol: as §1

350 wild-type kinases [4] = biological target: T4, 350 wild-type kinases (Homo sapiens, UniProt P24941); conditions: singlicate; for Residual activity (% of control), CDK2/CycA2: kinase CDK2/CycA2, ATP 0,3 µM; for Residual activity (% of control), CDK2/CycD1: kinase CDK2/CycD1, ATP 3 µM; for Residual activity (% of control), CDK2/CycE1: kinase CDK2/CycE1, ATP 1 µM
T4 construct: purchased Reaction Biology (assay service)
Protocol: as §1

350 wild-type kinases [5] = biological target: T5, 350 wild-type kinases (Homo sapiens, UniProt P36896); conditions: kinase ACVR1B, ATP 3 µM, singlicate
T5 construct: purchased Reaction Biology (assay service)
Protocol: as §1

350 wild-type kinases [6] = biological target: T6, 350 wild-type kinases (Homo sapiens, UniProt P41240); conditions: kinase CSK, ATP 1 µM, singlicate
T6 construct: purchased Reaction Biology (assay service)
Protocol: as §1

350 wild-type kinases [7] = biological target: T7, 350 wild-type kinases (Homo sapiens, UniProt P48730); conditions: kinase CK1delta, ATP 0,3 µM, singlicate
T7 construct: purchased Reaction Biology (assay service)
Protocol: as §1

350 wild-type kinases [8] = biological target: T8, 350 wild-type kinases (Homo sapiens, UniProt P49336); conditions: kinase CDK8/CycC, ATP 1 µM, singlicate
T8 construct: purchased Reaction Biology (assay service)
Protocol: as §1

350 wild-type kinases [9] = biological target: T9, 350 wild-type kinases (Homo sapiens, UniProt P49674); conditions: kinase CK1epsilon, ATP 0,3 µM, singlicate
T9 construct: purchased Reaction Biology (assay service)
Protocol: as §1

350 wild-type kinases [10] = biological target: T10, 350 wild-type kinases (Homo sapiens, UniProt P49760); conditions: kinase CLK2, ATP 0,3 µM, singlicate
T10 construct: purchased Reaction Biology (assay service)
Protocol: as §1

350 wild-type kinases [11] = biological target: T11, 350 wild-type kinases (Homo sapiens, UniProt P50613); conditions: kinase CDK7/CycH/MAT1, ATP 1 µM, singlicate
T11 construct: purchased Reaction Biology (assay service)
Protocol: as §1

350 wild-type kinases [12] = biological target: T12, 350 wild-type kinases (Homo sapiens, UniProt Q00526); conditions: ATP 3 µM, singlicate; for Residual activity (% of control), CDK3/CycC: kinase CDK3/CycC; for Residual activity (% of control), CDK3/CycE1: kinase CDK3/CycE1
T12 construct: purchased Reaction Biology (assay service)
Protocol: as §1

350 wild-type kinases [13] = biological target: T13, 350 wild-type kinases (Homo sapiens, UniProt Q00536); conditions: kinase CDK16/CycY, ATP 0,3 µM, singlicate
T13 construct: purchased Reaction Biology (assay service)
Protocol: as §1

350 wild-type kinases [14] = biological target: T14, 350 wild-type kinases (Homo sapiens, UniProt Q13131); conditions: kinase AMPKalpha1, ATP 3 µM, singlicate
T14 construct: purchased Reaction Biology (assay service)
Protocol: as §1

350 wild-type kinases [15] = biological target: T15, 350 wild-type kinases (Homo sapiens, UniProt Q16832); conditions: kinase DDR2, ATP 0,1 µM, singlicate
T15 construct: purchased Reaction Biology (assay service)
Protocol: as §1

350 wild-type kinases [16] = biological target: T16, 350 wild-type kinases (Homo sapiens, UniProt Q5VT25); conditions: kinase CDC42BPA, ATP 0,1 µM, singlicate
T16 construct: purchased Reaction Biology (assay service)
Protocol: as §1

350 wild-type kinases [17] = biological target: T17, 350 wild-type kinases (Homo sapiens, UniProt Q8N568); conditions: kinase DCAMKL2, ATP 1 µM, singlicate
T17 construct: purchased Reaction Biology (assay service)
Protocol: as §1

350 wild-type kinases [18] = biological target: T18, 350 wild-type kinases (Homo sapiens, UniProt Q9UQB9); conditions: kinase AuroraC, ATP 3 µM, singlicate
T18 construct: purchased Reaction Biology (assay service)
Protocol: as §1

350 wild-type kinases [19] = biological target: T19, 350 wild-type kinases (Homo sapiens, UniProt Q9Y6M4); conditions: kinase CK1gamma3, ATP 0,1 µM, singlicate
T19 construct: purchased Reaction Biology (assay service)
Protocol: as §1

350 wild-type kinases [20] = conditions: 10 μM, 350 kinases
Protocol: as §1

T3 sequence (P06493 whole entry): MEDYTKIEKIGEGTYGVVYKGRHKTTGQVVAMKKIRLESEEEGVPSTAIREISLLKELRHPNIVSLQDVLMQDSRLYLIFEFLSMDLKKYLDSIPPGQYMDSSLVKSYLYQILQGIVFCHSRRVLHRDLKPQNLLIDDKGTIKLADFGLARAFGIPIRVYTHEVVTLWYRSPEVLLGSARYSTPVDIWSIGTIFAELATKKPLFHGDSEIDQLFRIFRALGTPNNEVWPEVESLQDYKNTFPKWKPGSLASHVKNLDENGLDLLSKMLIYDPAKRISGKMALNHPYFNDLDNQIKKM
T12 sequence (Q00526 whole entry): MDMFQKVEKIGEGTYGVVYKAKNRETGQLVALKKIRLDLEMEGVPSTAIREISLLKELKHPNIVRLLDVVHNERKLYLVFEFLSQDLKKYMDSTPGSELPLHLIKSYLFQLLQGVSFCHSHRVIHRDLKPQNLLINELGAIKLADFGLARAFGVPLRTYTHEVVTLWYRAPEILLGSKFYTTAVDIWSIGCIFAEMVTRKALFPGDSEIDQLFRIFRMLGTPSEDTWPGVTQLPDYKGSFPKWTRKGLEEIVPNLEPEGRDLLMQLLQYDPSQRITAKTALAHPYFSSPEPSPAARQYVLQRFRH
T13 sequence (Q00536 whole entry): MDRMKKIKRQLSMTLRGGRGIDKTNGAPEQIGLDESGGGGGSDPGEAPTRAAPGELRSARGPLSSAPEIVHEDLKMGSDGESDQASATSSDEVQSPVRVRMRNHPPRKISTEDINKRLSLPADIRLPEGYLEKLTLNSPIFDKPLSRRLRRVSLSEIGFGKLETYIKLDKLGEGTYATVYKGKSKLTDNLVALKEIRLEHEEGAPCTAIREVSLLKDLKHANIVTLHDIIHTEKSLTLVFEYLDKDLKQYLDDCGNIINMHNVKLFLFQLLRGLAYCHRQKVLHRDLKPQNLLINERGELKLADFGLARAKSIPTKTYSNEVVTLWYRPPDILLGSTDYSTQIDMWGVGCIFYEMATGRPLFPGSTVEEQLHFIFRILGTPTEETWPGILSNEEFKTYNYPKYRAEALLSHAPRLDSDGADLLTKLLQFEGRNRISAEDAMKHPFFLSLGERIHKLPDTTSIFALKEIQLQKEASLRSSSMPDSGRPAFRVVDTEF
T18 sequence (Q9UQB9 whole entry): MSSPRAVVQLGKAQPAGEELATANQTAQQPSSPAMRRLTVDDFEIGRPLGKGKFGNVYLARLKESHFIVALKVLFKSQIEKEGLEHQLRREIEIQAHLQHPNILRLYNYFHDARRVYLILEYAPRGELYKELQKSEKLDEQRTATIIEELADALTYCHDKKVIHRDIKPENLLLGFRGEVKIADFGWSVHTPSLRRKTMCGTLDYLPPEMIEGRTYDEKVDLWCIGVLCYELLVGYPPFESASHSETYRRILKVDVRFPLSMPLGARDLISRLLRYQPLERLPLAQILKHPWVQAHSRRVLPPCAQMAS
T15 sequence (Q16832 22-855): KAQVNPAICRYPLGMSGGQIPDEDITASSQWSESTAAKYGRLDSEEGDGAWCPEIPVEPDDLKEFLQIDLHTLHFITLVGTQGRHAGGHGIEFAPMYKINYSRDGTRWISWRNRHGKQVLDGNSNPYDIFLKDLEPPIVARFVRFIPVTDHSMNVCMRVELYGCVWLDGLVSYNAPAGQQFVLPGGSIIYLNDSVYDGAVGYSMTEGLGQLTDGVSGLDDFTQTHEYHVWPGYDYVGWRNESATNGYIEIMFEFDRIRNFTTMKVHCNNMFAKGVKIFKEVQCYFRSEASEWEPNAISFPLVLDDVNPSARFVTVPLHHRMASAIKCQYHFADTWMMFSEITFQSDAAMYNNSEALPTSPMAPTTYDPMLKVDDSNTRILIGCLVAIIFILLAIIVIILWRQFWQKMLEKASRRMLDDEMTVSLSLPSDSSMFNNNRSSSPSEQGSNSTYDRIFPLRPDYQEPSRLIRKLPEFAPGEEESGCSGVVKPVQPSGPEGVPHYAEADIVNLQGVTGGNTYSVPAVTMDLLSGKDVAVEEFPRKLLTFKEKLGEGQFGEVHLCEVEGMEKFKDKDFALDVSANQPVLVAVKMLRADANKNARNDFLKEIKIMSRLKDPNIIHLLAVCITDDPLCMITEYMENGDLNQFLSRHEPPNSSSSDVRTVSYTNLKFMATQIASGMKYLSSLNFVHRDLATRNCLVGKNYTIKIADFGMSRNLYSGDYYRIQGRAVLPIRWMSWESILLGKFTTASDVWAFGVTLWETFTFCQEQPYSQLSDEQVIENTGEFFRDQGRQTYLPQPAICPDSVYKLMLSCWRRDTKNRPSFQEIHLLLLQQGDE
T6 sequence (P41240 whole entry): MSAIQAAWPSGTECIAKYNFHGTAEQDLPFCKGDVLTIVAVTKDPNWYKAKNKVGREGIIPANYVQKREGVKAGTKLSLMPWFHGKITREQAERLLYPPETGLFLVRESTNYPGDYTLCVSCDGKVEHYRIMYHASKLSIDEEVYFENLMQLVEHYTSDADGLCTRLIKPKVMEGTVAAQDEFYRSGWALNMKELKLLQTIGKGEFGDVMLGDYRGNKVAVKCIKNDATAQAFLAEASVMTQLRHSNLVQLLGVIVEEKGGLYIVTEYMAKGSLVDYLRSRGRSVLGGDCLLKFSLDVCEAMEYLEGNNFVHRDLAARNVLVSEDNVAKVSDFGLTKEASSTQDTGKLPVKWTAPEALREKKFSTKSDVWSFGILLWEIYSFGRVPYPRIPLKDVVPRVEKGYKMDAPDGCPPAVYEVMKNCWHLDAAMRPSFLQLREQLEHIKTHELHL
T9 sequence (P49674 whole entry): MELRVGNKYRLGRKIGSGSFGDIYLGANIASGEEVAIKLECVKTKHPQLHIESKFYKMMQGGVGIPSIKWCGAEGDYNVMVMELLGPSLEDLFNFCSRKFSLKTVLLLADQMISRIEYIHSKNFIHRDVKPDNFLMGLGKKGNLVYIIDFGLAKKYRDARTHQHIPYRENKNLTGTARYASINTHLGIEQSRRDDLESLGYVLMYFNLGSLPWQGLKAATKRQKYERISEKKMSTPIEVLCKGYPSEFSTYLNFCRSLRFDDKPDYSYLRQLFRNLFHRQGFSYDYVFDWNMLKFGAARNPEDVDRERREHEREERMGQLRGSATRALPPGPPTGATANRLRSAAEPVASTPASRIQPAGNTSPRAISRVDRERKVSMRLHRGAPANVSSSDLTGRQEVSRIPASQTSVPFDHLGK
T8 sequence (P49336 whole entry): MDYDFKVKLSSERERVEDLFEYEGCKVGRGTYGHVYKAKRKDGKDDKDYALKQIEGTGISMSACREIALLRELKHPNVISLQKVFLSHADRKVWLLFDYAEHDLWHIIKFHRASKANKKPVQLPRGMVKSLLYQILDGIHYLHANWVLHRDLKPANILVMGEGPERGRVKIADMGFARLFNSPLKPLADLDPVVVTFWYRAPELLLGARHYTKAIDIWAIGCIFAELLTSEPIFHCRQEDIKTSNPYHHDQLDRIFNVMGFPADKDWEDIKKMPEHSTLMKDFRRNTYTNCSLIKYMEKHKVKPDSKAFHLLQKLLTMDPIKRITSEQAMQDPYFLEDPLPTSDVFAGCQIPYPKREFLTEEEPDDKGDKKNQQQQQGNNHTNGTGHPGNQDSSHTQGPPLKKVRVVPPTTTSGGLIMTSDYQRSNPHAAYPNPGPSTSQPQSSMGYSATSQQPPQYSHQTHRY
T2 sequence (P00519 whole entry): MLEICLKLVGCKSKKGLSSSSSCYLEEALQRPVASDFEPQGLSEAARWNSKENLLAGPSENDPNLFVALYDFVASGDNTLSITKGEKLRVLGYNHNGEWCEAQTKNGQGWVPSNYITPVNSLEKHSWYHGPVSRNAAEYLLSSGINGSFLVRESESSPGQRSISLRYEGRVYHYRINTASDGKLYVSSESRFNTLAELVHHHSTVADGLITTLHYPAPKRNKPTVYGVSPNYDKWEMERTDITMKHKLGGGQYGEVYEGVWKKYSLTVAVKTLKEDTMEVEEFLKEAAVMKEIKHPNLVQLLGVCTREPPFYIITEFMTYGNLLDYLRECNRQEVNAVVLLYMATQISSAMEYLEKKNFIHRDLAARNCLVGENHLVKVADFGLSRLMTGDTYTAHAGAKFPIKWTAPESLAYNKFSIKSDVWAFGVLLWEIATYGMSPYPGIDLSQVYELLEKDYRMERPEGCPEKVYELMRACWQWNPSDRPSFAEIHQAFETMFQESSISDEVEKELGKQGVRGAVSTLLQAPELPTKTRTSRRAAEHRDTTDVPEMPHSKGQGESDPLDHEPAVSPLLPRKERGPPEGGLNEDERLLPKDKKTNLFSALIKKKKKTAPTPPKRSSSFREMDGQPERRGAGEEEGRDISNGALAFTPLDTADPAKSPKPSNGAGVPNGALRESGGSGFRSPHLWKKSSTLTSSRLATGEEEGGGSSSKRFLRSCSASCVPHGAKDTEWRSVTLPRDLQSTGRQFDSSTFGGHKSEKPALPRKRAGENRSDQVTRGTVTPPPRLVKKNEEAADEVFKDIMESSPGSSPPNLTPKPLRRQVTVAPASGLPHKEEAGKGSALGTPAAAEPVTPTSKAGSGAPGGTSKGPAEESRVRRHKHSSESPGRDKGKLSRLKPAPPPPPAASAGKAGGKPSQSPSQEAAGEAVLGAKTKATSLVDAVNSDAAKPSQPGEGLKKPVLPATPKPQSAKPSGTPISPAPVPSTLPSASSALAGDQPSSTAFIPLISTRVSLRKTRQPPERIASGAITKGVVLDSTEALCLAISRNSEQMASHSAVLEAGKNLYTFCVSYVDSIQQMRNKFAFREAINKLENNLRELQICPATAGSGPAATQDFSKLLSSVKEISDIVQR

## CCSc1nc(NC)c2c(-c3cccc(NC(=O)Nc4cc(C(C)(C)C)nn4-c4ccc(C)cc4)c3)c[nH]c2n1 [Compound 32]
350 wild-type kinases [1]; Assay Conc. 1.0E-05 M
  Residual activity (% of control), BMPR1B: 102 % of control
350 wild-type kinases [1]; Assay Conc. 1.0E-06 M
  Residual activity (% of control), BMPR1B: 109 % of control
350 wild-type kinases [2]; Assay Conc. 1.0E-05 M
  Residual activity (% of control), ABL1: 70 % of control
350 wild-type kinases [2]; Assay Conc. 1.0E-06 M
  Residual activity (% of control), ABL1: 102 % of control
350 wild-type kinases [3]; Assay Conc. 1.0E-05 M
  Residual activity (% of control), CDK1/CycA2: 62 % of control
  Residual activity (% of control), CDK1/CycB1: 82 % of control
  Residual activity (% of control), CDK1/CycE1: 51 % of control
350 wild-type kinases [3]; Assay Conc. 1.0E-06 M
  Residual activity (% of control), CDK1/CycA2: 110 % of control
  Residual activity (% of control), CDK1/CycB1: 105 % of control
  Residual activity (% of control), CDK1/CycE1: 104 % of control
350 wild-type kinases [4]; Assay Conc. 1.0E-05 M
  Residual activity (% of control), CDK2/CycA2: 46 % of control
  Residual activity (% of control), CDK2/CycD1: 78 % of control
  Residual activity (% of control), CDK2/CycE1: 58 % of control
350 wild-type kinases [4]; Assay Conc. 1.0E-06 M
  Residual activity (% of control), CDK2/CycA2: 105 % of control
  Residual activity (% of control), CDK2/CycD1: 110 % of control
  Residual activity (% of control), CDK2/CycE1: 103 % of control
350 wild-type kinases [5]; Assay Conc. 1.0E-05 M
  Residual activity (% of control), ACVR1B: 76 % of control
350 wild-type kinases [5]; Assay Conc. 1.0E-06 M
  Residual activity (% of control), ACVR1B: 93 % of control
350 wild-type kinases [6]; Assay Conc. 1.0E-05 M
  Residual activity (% of control), CSK: 69 % of control
350 wild-type kinases [6]; Assay Conc. 1.0E-06 M
  Residual activity (% of control), CSK: 97 % of control
350 wild-type kinases [7]; Assay Conc. 1.0E-05 M
  Residual activity (% of control), CK1delta: 85 % of control
350 wild-type kinases [7]; Assay Conc. 1.0E-06 M
  Residual activity (% of control), CK1delta: 98 % of control
350 wild-type kinases [8]; Assay Conc. 1.0E-05 M
  Residual activity (% of control), CDK8/CycC: 36 % of control
350 wild-type kinases [8]; Assay Conc. 1.0E-06 M
  Residual activity (% of control), CDK8/CycC: 91 % of control
350 wild-type kinases [9]; Assay Conc. 1.0E-05 M
  Residual activity (% of control), CK1epsilon: 74 % of control
350 wild-type kinases [9]; Assay Conc. 1.0E-06 M
  Residual activity (% of control), CK1epsilon: 97 % of control
350 wild-type kinases [10]; Assay Conc. 1.0E-05 M
  Residual activity (% of control), CLK2: 86 % of control
350 wild-type kinases [10]; Assay Conc. 1.0E-06 M
  Residual activity (% of control), CLK2: 109 % of control
350 wild-type kinases [11]; Assay Conc. 1.0E-05 M
  Residual activity (% of control), CDK7/CycH/MAT1: 75 % of control
350 wild-type kinases [11]; Assay Conc. 1.0E-06 M
  Residual activity (% of control), CDK7/CycH/MAT1: 100 % of control
350 wild-type kinases [12]; Assay Conc. 1.0E-05 M
  Residual activity (% of control), CDK3/CycC: 65 % of control
  Residual activity (% of control), CDK3/CycE1: 75 % of control
350 wild-type kinases [12]; Assay Conc. 1.0E-06 M
  Residual activity (% of control), CDK3/CycC: 106 % of control
  Residual activity (% of control), CDK3/CycE1: 115 % of control
350 wild-type kinases [13]; Assay Conc. 1.0E-05 M
  Residual activity (% of control), CDK16/CycY: 88 % of control
350 wild-type kinases [13]; Assay Conc. 1.0E-06 M
  Residual activity (% of control), CDK16/CycY: 113 % of control
350 wild-type kinases [14]; Assay Conc. 1.0E-05 M
  Residual activity (% of control), AMPKalpha1: 85 % of control
350 wild-type kinases [14]; Assay Conc. 1.0E-06 M
  Residual activity (% of control), AMPKalpha1: 95 % of control
350 wild-type kinases [15]; Assay Conc. 1.0E-05 M
  Residual activity (% of control), DDR2: 20 % of control
350 wild-type kinases [15]; Assay Conc. 1.0E-06 M
  Residual activity (% of control), DDR2: 79 % of control
350 wild-type kinases [16]; Assay Conc. 1.0E-05 M
  Residual activity (% of control), CDC42BPA: 111 % of control
350 wild-type kinases [16]; Assay Conc. 1.0E-06 M
  Residual activity (% of control), CDC42BPA: 122 % of control
350 wild-type kinases [17]; Assay Conc. 1.0E-05 M
  Residual activity (% of control), DCAMKL2: 91 % of control
350 wild-type kinases [17]; Assay Conc. 1.0E-06 M
  Residual activity (% of control), DCAMKL2: 103 % of control
350 wild-type kinases [18]; Assay Conc. 1.0E-05 M
  Residual activity (% of control), AuroraC: 77 % of control
350 wild-type kinases [18]; Assay Conc. 1.0E-06 M
  Residual activity (% of control), AuroraC: 105 % of control
350 wild-type kinases [19]; Assay Conc. 1.0E-05 M
  Residual activity (% of control), CK1gamma3: 99 % of control
350 wild-type kinases [19]; Assay Conc. 1.0E-06 M
  Residual activity (% of control), CK1gamma3: 106 % of control
350 wild-type kinases [20]
  number of kinases inhibited with less than 30% residual activity: 10
